Paper PMC9644403, “L-type Amino Acid Transporter 1 Utilizing Ferulic Acid Derivatives Show Increased Drug Delivery in the Mouse Pancreas Along with Decreased Lipid Peroxidation and Prostaglandin Production” (Molecular Pharmaceutics, 2022)
Like-named read-outs stand apart in the source and are kept apart here. Marks after values point to notes of the source that are not given here.

Assays:
[1] = RBC lysis assay (hemolysis); type: cell-based; settings: 2% erythrocyte (RBC) suspension, human RBCs, 37 °C, Triton X = 100%, control 2.08 ± 0.15%, read-out: hemolysis rate
Protocol: To further evaluate the safety of derivatives in human blood, the effects of FA, D1, and D2 on hemolysis were studied using a previously described protocol.[31] Shortly, freshly collected erythrocytes were washed three times with 1 mL of 0.9% saline (Sigma-Aldrich, Germany). Subsequently, 2% RBC suspension was prepared by diluting 1 mL of erythrocytes in 50 mL of 0.9% saline. FA, D1, and D2 (1–100 μM) were incubated with the RBC suspension at 37 °C for 1 h. Additionally, negative controls containing 0.9% NaCl and positive controls with Triton X-100 (Polish Chemical Reagents, Poland) were studied. After incubation, the samples were centrifuged at 3 000 rpm for 10 min, and the absorbance values were measured from the collected supernatants at the wavelength of 550 nm. Samples with Triton X (positive control) represented 100% hemolysis. Results of the studies are presented as a percentage of released hemoglobin. The counted CV was 8.1% (n = 5). Additionally, the influence of FA and its derivatives (25–100 μM) on RBC morphology was studied using a phase contrast Opta-Tech inverted microscope. The morphology was analyzed using a dedicated OptaView 7 software (Opta-Tech, Warsaw, Poland).

[2] = mouse plasma, equilibrium dialysis, 4 h incubation, n = 2; cited from earlier work
[3] = In vivo pharmacokinetics in mouse pancreas, liver and kidney after i.p. bolus; settings: 25 μmol/kg i.p.; for Cmax kidney / Cmax liver / Cmax pancreas / AUCtotal kidney / AUCtotal liver / AUCtotal pancreas / Kp / half-life / Kp,uu (unbound tissue-to-plasma AUC ratio) / Tmax / AUCu, kidney / AUCu, liver / AUCu, pancreas / Cmax, u kidney / Cmax, u liver / Cmax, u pancreas: mice; for AUCtotal kidney / AUCtotal liver / AUCtotal pancreas: n = 3; for pancreas AUC, times higher in comparison to the original FA: mouse pancreas; for Kp / half-life / Kp,uu (unbound tissue-to-plasma AUC ratio) / Tmax: mouse, ip, 25 umol/kg; for Kp: tissue/plasma partition coefficient (eq 2); for half-life: elimination half-life; for AUCu, kidney / AUCu, liver / AUCu, pancreas: unbound (eq 3); for Cmax, u kidney / Cmax, u liver / Cmax, u pancreas: unbound
Protocol: The pharmacokinetic study of FA, D1, and D2 was performed as previously described,[17] in which the pharmacokinetic parameters for the plasma and brain have been reported. Briefly, the studied compounds were dissolved in a vehicle containing 0.9% (w/v) NaCl in water, and a dose of 25 μmol/kg of the FA, D1, or D2 (n = 3 per compound at each time point) was administered as a bolus intraperitoneal (i.p.) injection for mice. The mice were anesthetized using a mixture of ketamine (140 mg/kg) and xylazine (8 mg/kg) and sacrificed by decapitation at selected time points between 10 and 360 min. The kidney, liver, and pancreas were rapidly collected, snap-frozen on dry ice, and stored at −80 °C until analyzed.
The frozen tissues were weighed and homogenized with ultrapure water (1:3 w/v) by sonicating twice for 5 s with the SoniPrep 150 Plus disintegrator (MSE Ltd., London, UK). The proteins were precipitated by diluting homogenate 1:3 (v/v) with acetonitrile containing the internal standards—chlorzoxazone for FA and diclofenac for derivatives. Samples were then centrifuged at 14 000 × g for 10 min at 4 °C. Supernatants were collected and diluted further 1:1 with ultrapure water and transferred into HPLC vials for the analysis by liquid chromatography-tandem mass spectrometry (LC–MS/MS).
Drug concentrations were analyzed using the LC–MS/MS method described previously,[17] with minor changes. Briefly, the analysis was carried out with an Agilent 1200 Series Rapid Resolution LC System with an Agilent Zorbax XBD-C18 rapid resolution high-throughput (RRHT) column (50 mm × 4.6 mm, 1.8 μm) and an Agilent 6410 triple quadrupole mass spectrometer equipped with an electrospray ionization source (Agilent Technologies, Palo Alto, CA, USA). The LC eluents were water (eluent A) and acetonitrile (eluent B), both containing 0.1% (v/v) formic acid. FA was separated with the following gradient: 0–1 min: 5% B, 1–2 min: 5% B → 90%, 2–4 min: 90% B, 4–4.1 min: 90% B → 5%, and 4.1–7 min: 5% B. For the derivatives, the gradient was as follows: 0–1 min: 10% B, 1–2 min: 10% B → 90%, 2–5 min: 90% B, 5–5.1 min: 90% B → 10%, and 5.1–8 min: 10% B. In both methods, the LC flow rate was 0.3 mL/min, the column temperature was set to 40 °C, and the sample injection volume was 5 μL.
The LC–MS/MS data acquisition for the FA was performed in a negative ion mode with the following conditions: drying gas flow 6.5 l/min with the temperature of 300 °C, nebulizer gas pressure of 20 psi, and capillary voltage of 4 000 V. MRM transitions were 193 → 149 for FA and 168 → 132 for chlorzoxazone. Fragmentor voltages were 100 and 120 V, respectively, and the collision energy was 20 V for both. For D1 and D2, the analysis was performed in a positive ion mode with the following conditions: drying gas flow of 6.5 l/min with the temperature of 300 °C, nebulizer gas pressure of 20 psi, and capillary voltage of 3 000 V. MRM transitions were 371 → 176.8 for D1, 357 → 310.9 for D2, and 296 → 250 for the diclofenac. The fragmentor voltages were 60, 40, and 100 V, and the collision energies were 16, 8, and 10 V, respectively. The data acquisition software was Agilent MassHunter Workstation software (version B.03.01), whereas Quantitative Analysis (B.09.00) software was used for data processing and analysis. The lower limit of quantification for the FA was 0.05 nmol/g and was 0.01 nmol/g for derivatives. The methods were linear, selective, accurate, and precise in the calibration range of 0.05–300 nmol/g for FA and 0.01–300 nmol/g for derivatives.
The time–concentration profiles for studied drugs were calculated using GraphPad Prism v. 5.03 software (GraphPad Software, San Diego, CA, USA). The area under curve (AUC) was calculated using the linear trapezoidal method, providing simultaneously the numeric pharmacokinetic parameters, such as tmax and Cmax. The half-life of elimination (t1/2β) was calculated from a logarithmic slope based on at least the last three detected timepoints. […]

[4] = kidney, read-out: t1/2β, kidney
[5] = kidney, read-out: AUCu, kidney/AUCu plasma
[6] = kidney, read-out: tmax kidney (converted)
[7] = liver, read-out: AUCu, liver/AUCu plasma
[8] = liver, read-out: tmax liver (converted)
[9] = pancreas, read-out: Kp, pancreas
[10] = pancreas, read-out: t1/2β, pancreas
[11] = pancreas, read-out: AUCu, pancreas/AUCu plasma
[12] = pancreas, read-out: tmax pancreas (converted)

Compound | hemolysis at 1 h, 100 µM [1] [%] | fu, plasma (%) [2] | Cmax kidney [3] [nmol/g] | Cmax liver [3] [nmol/g] | Cmax pancreas [3] [nmol/g] | AUCtotal kidney [3] | AUCtotal liver [3] | AUCtotal pancreas [3] | Kp ([3]; kidney, read-out: Kp, kidney) | half-life [3, 4] [min] | Kp,uu (unbound tissue-to-plasma AUC ratio) [3, 5] | Tmax [3, 6] [min] | Kp ([3]; liver, read-out: Kp, liver) | half-life ([3]; liver, read-out: t1/2β, liver) [min] | Kp,uu (unbound tissue-to-plasma AUC ratio) [3, 7] | Tmax [3, 8] [min] | Kp [3, 9] | Kp,uu (unbound tissue-to-plasma AUC ratio) [3, 11] | Tmax [3, 12] [min] | AUCu, kidney [3] | further results
COc1cc(C=CC(=O)NCc2cccc(CC(N)C(=O)O)c2)ccc1O (stereo not shown) [derivative 1] | 3.58 ± 0.69 | 19.66–30.62 ^b % | 20.4 | 44.3 | 168 | 415 nmol·min/g | 1 769 nmol/g × min | 5 182 nmol/g × min | 0.4 | 11.8 | 0.74 | 10 | 1.7 | 11.7 | 2.9 | 10 | 4.97 | 5.54 | 10 | 194 nmol·min/g | pancreas AUC, times higher in comparison to the original FA [3]: 129.2 times; half-life [3, 10]: 9.9 min; AUCu, liver [3]: 752 nmol·min/g; AUCu, pancreas [3]: 1 452 nmol/g × min; Cmax, u kidney [3]: 9.6 nmol/g; Cmax, u liver [3]: 18.8 nmol/g; Cmax, u pancreas [3]: 47.1 nmol/g
COc1cc(/C=C/C(=O)Nc2cccc(C[C@H](N)C(=O)O)c2)ccc1O [derivative 2] | 1.97 ± 1.25 | 8.37–9.01 ^b % | 196 | 66.4 | 253 | 3 368 nmol/g × min | 2 100 nmol/g × min | 8 172 nmol/g × min | 7.27 | 8 | 25.7 | 10 | 4.54 | 13.1 | 12.4 | 10 | 17.6 | 30.6 | 30 | 1 028 nmol/g × min | pancreas AUC, times higher in comparison to the original FA [3]: 203.8 times; half-life [3, 10]: 33.8 min; AUCu, liver [3]: 496 nmol·min/g; AUCu, pancreas [3]: 1 226 nmol/g × min; Cmax, u kidney [3]: 59.8 nmol/g; Cmax, u liver [3]: 15.7 nmol/g; Cmax, u pancreas [3]: 38.0 nmol/g
COc1cc(C=CC(=O)O)ccc1O [ferulic acid, 4-hydroxy-3-methoxycinnamic acid] | 2.38 ± 1.84 | 9.94–11.51 ^b % | 14.4 | 18.0 | 5.4 | 140 nmol·min/g | 408 nmol·min/g | 40.1 nmol·min/g | 0.24 | 3.4 | 2.21 | 10 | 0.69 | 11.2 | 5.5 | 10 | 0.07 | 0.64 | 10 | 139 nmol·min/g | AUCu, liver [3]: 347 nmol·min/g; AUCu, pancreas [3]: 40.1 nmol·min/g; Cmax, u kidney [3]: 14.3 nmol/g; Cmax, u liver [3]: 15.3 nmol/g; Cmax, u pancreas [3]: 5.4 nmol/g
